Results published in PubChem BioAssay AID248 (DTP/NCI, 2004).
“And” between values parts separate entries of the source, which are not always exact repeats. Identical values can stand only once. Toxic doses and inconclusive results are not listed. Rule as the data show it: active = T/C of 150% or more; inactive = T/C below 125%.

Tested on: L1210 leukemia ip in BDF1 mice, survival T/C
Test: NCI In Vivo Anticancer Drug Screen. Data for tumor model L1210 Leukemia (intraperitoneal) in B6D2F1 (BDF1) mice
Details: endpoint: mean survival time, higher = longer survival
Outline: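 Transplantable tumor model; survival measured in treated vs vehicle control mice. Value = treated/control.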

[1] = dose: 100.0 mg/kg/injection, schedule: Q01DX001 (ip), vehicle: other
[2] = dose: 100.0 mg/kg/injection, schedule: Q04DX002 (ip), vehicle: Klucel (hydroxypropylcellulose) (HPC)
[3] = dose: 200.0 mg/kg/injection, schedule: Q01DX001 (ip), vehicle: other
[4] = dose: 200.0 mg/kg/injection, schedule: Q04DX002 (ip), vehicle: Klucel (hydroxypropylcellulose) (HPC)
[5] = dose: 400.0 mg/kg/injection, schedule: Q01DX001 (ip), vehicle: other
[6] = dose: 100.0 mg/kg/injection, schedule: Q01DX009 (ip), vehicle: Klucel (hydroxypropylcellulose) (HPC)
[7] = dose: 100.0 mg/kg/injection, schedule: Q04DX003 (ip), vehicle: Klucel (hydroxypropylcellulose) (HPC)
[8] = dose: 200.0 mg/kg/injection, schedule: Q01DX009 (ip), vehicle: Klucel (hydroxypropylcellulose) (HPC)
[9] = dose: 200.0 mg/kg/injection, schedule: Q04DX003 (ip), vehicle: Klucel (hydroxypropylcellulose) (HPC)
[10] = dose: 400.0 mg/kg/injection, schedule: Q04DX003 (ip), vehicle: Klucel (hydroxypropylcellulose) (HPC)
[11] = dose: 100.0 mg/kg/injection, schedule: Q01DX001 (ip), vehicle: saline
[12] = dose: 200.0 mg/kg/injection, schedule: Q01DX001 (ip), vehicle: saline
[13] = dose: 400.0 mg/kg/injection, schedule: Q01DX001 (ip), vehicle: saline
[14] = dose: 400.0 mg/kg/injection, schedule: Q04DX002 (ip), vehicle: Klucel (hydroxypropylcellulose) (HPC)
[15] = dose: 100.0 mg/kg/injection, schedule: Q04DX003 (ip), vehicle: saline with Tween-80
[16] = dose: 200.0 mg/kg/injection, schedule: Q04DX003 (ip), vehicle: saline with Tween-80
[17] = dose: 400.0 mg/kg/injection, schedule: Q04DX003 (ip), vehicle: saline with Tween-80

Measured: T/C

COc1ccccc1[P+](CO)(c1ccccc1OC)c1ccccc1OC
inactive: dose: 100.0 mg/kg/injection, schedule: Q01DX009 (ip), vehicle: saline 97 % of control | dose: 100.0 mg/kg/injection, schedule: Q04DX003 (ip), vehicle: saline 103 % of control | dose: 200.0 mg/kg/injection, schedule: Q01DX009 (ip), vehicle: saline 92 % of control | dose: 200.0 mg/kg/injection, schedule: Q04DX003 (ip), vehicle: saline 97 % of control | dose: 400.0 mg/kg/injection, schedule: Q01DX009 (ip), vehicle: saline 93 % of control | dose: 400.0 mg/kg/injection, schedule: Q04DX003 (ip), vehicle: saline 97 % of control

O=C1CCC(Cc2ccccc2)N1 (stereo not given)
inactive: dose: 100.0 mg/kg/injection, schedule: Q04DX002 (ip), vehicle: saline with Tween-80 97 % of control | dose: 200.0 mg/kg/injection, schedule: Q04DX002 (ip), vehicle: saline with Tween-80 102 % of control | dose: 400.0 mg/kg/injection, schedule: Q04DX002 (ip), vehicle: saline with Tween-80 97 % of control

CCCNC(=O)Oc1ccc(C2CCCCC2)cc1
inactive: [1] 100 % of control | dose: 100.0 mg/kg/injection, schedule: Q01DX009 (ip), vehicle: other 104 % of control and 87 % of control | [2] 110 % of control | dose: 100.0 mg/kg/injection, schedule: Q04DX002 (ip), vehicle: other 105 % of control and 109 % of control | dose: 100.0 mg/kg/injection, schedule: Q04DX003 (ip), vehicle: other 100 % of control | [3] 100 % of control | dose: 200.0 mg/kg/injection, schedule: Q01DX009 (ip), vehicle: other 103 % of control and 111 % of control | [4] 100 % of control | dose: 200.0 mg/kg/injection, schedule: Q04DX002 (ip), vehicle: other 95 % of control and 111 % of control | dose: 200.0 mg/kg/injection, schedule: Q04DX003 (ip), vehicle: other 102 % of control | [5] 97 % of control | dose: 400.0 mg/kg/injection, schedule: Q01DX009 (ip), vehicle: other 101 % of control and 112 % of control | dose: 400.0 mg/kg/injection, schedule: Q04DX002 (ip), vehicle: other 95 % of control and 107 % of control | dose: 400.0 mg/kg/injection, schedule: Q04DX003 (ip), vehicle: other 104 % of control

Cc1cc2nc(C(O)C(O)C(O)C(O)c3nc4cc(C)c(C)cc4[nH]3)[nH]c2cc1C (stereo not given)
inactive: [1] 98 % of control | [3] 87 % of control | [5] 104 % of control

CCN(CC)c1ccc(C=Nc2cccc(C(F)(F)F)c2)cc1
inactive: [6] 105 % of control | [7] 92 % of control | [8] 94 % of control | [9] 94 % of control | [10] 97 % of control

Clc1ccccc1C=C1c2ccccc2-c2ccccc21
inactive: [7] 103 % of control | [9] 100 % of control | [10] 96 % of control

COc1cccc(NC(=S)NC2CC(C)CC(C)(C)C2)c1 (stereo not given)
inactive: dose: 100.0 mg/kg/injection, schedule: Q04DX002 (ip), vehicle: gum acacia 95 % of control | dose: 200.0 mg/kg/injection, schedule: Q04DX002 (ip), vehicle: gum acacia 98 % of control | dose: 400.0 mg/kg/injection, schedule: Q04DX002 (ip), vehicle: gum acacia 95 % of control

O=C(NO)c1ccccc1F
inactive: [11] 97 % of control | [12] 110 % of control | [13] 93 % of control

Cc1cc(NC(=O)NCc2ccc([N+](=O)[O-])cc2Cl)ccc1S(=O)(=O)F
inactive: [7] 98 % of control | [9] 98 % of control | [10] 106 % of control

O=C1C2C3CC(c4ccccc43)C2N1S(=O)(=O)Cl (stereo not given)
inactive: [2] 105 % of control | [4] 105 % of control | [14] 105 % of control

CCOC(=O)/C=N/Nc1ccc([N+](=O)[O-])cc1[N+](=O)[O-]
inactive: dose: 50.0 mg/kg/injection, schedule: Q01DX001 (ip), vehicle: other 95 % of control | [1] 90 % of control | [3] 95 % of control | [5] 92 % of control

CNC(=S)C(=S)NC
inactive: dose: 12.5 mg/kg/injection, schedule: Q04DX003 (ip), vehicle: saline with Tween-80 94 % of control | dose: 25.0 mg/kg/injection, schedule: Q04DX003 (ip), vehicle: saline with Tween-80 95 % of control

C=CCNC(=O)Oc1cccc(NC(=O)/C=C/C)c1
inactive: dose: 100.0 mg/kg/injection, schedule: Q01DX009 (ip), vehicle: saline with Tween-80 88 % of control | [15] 97 % of control | [16] 95 % of control | [17] 92 % of control

CC1(C)CCCC2(C)C(C(=O)O)C3CCC45OC3(CC12)OC(=O)C4C1(C)CCCC(C)(C)C1CC5=O (stereo not given)
inactive: [11] 101 % of control | [12] 107 % of control | [13] 109 % of control

O=S(=O)(Cc1ccccc1)N1CCCCC1
inactive: [2] 99 % of control | [4] 99 % of control

Cc1ccc[n+]2c1ccc1c3ccccc3ccc12
inactive: dose: 10.0 mg/kg/injection, schedule: Q01DX001 (ip), vehicle: saline 106 % of control

O=C1C=C(C2OC(CO)C(O)C2O)C(=O)N1 (stereo not given)
inactive: dose: 6.0 mg/kg/injection, schedule: Q01DX015 (ip), vehicle: saline 113 % of control | dose: 6.0 mg/kg/injection, schedule: Q01DX Z (ip), vehicle: saline 115 % of control | dose: 6.2 mg/kg/injection, schedule: Q01DX001 (ip), vehicle: saline 97 % of control | dose: 9.0 mg/kg/injection, schedule: Q01DX001 (ip), vehicle: saline 101 % of control | dose: 9.0 mg/kg/injection, schedule: Q01DX015 (ip), vehicle: saline 113 % of control | dose: 9.0 mg/kg/injection, schedule: Q01DX Z (ip), vehicle: saline 122 % of control | dose: 12.0 mg/kg/injection, schedule: Q01DX001 (ip), vehicle: saline 100 % of control | dose: 12.5 mg/kg/injection, schedule: Q01DX001 (ip), vehicle: saline 109 % of control | dose: 15.0 mg/kg/injection, schedule: Q01DX001 (ip), vehicle: saline 106 % of control | dose: 15.0 mg/kg/injection, schedule: Q01DX015 (ip), vehicle: saline 122 % of control | dose: 15.0 mg/kg/injection, schedule: Q01DX Z (ip), vehicle: saline 110 % of control

CCCCCC/C(=C\c1ccc(O)cc1)C(=O)O
inactive: dose: 50.0 mg/kg/injection, schedule: Q01DX001 (ip), vehicle: carboxymethylcellulose (CMC) 97 % of control | dose: 100.0 mg/kg/injection, schedule: Q01DX001 (ip), vehicle: carboxymethylcellulose (CMC) 103 % of control | dose: 200.0 mg/kg/injection, schedule: Q01DX001 (ip), vehicle: carboxymethylcellulose (CMC) 105 % of control | dose: 400.0 mg/kg/injection, schedule: Q01DX001 (ip), vehicle: carboxymethylcellulose (CMC) 100 % of control

O=C(Nc1cccc(S(=O)(=O)F)c1)c1ccc(COc2ccc([N+](=O)[O-])cc2Cl)cc1
inactive: dose: 100.0 mg/kg/injection, schedule: Q01DX009 (ip), vehicle: saline sonified 100 % of control | [15] 97 % of control | dose: 200.0 mg/kg/injection, schedule: Q01DX009 (ip), vehicle: saline sonified 100 % of control | [16] 100 % of control | dose: 400.0 mg/kg/injection, schedule: Q01DX009 (ip), vehicle: saline sonified 94 % of control | [17] 94 % of control

Cc1cc(OC(=O)Nc2cc(Cl)ccc2C)c(C(C)C)cc1Cl
inactive: dose: 100.0 mg/kg/injection, schedule: Q01DX001 (ip), vehicle: Klucel (hydroxypropylcellulose) (HPC) 90 % of control | [6] 102 % of control and 88 % of control | [2] 96 % of control | [7] 103 % of control | dose: 200.0 mg/kg/injection, schedule: Q01DX001 (ip), vehicle: Klucel (hydroxypropylcellulose) (HPC) 91 % of control | [8] 97 % of control | [4] 94 % of control | [9] 94 % of control | dose: 400.0 mg/kg/injection, schedule: Q01DX001 (ip), vehicle: Klucel (hydroxypropylcellulose) (HPC) 88 % of control | dose: 400.0 mg/kg/injection, schedule: Q01DX009 (ip), vehicle: Klucel (hydroxypropylcellulose) (HPC) 94 % of control and 86 % of control | [14] 91 % of control | [10] 96 % of control

CN1CCC(OC(=O)C(O)C2CCCCC2)CC1 (stereo not given)
inactive: [7] 104 % of control | [9] 103 % of control

NC(N)=NNC(=O)C(=O)O
inactive: [15] 95 % of control | [16] 91 % of control | [17] 93 % of control
